Earlier results, collected in US10729708B2, “Stabilized glycopeptide antibiotic formulations” (XELLIA PHARMACEUTICALS APS, priority 2016, dated 2020).

Tests used:
Conditions in all cases: QC strain, CLSI protocol
[1] = system: Staphylococcus aureus ATCC 29213
[2] = system: Enterococcus faecalis ATCC 29212
[3] = system: Streptococcus pnemoniae ATCC 49619

Structure (SMILES): CN[C@H](CC(C)C)C(=O)NC1C(=O)N[C@@H](CC(N)=O)C(=O)N[C@H]2C(=O)N[C@H]3C(=O)NC(C(=O)N[C@@H](C(=O)O)c4cc(O)cc(O)c4-c4cc3ccc4O)[C@H](O)c3ccc(c(Cl)c3)Oc3cc2cc(c3O[C@@H]2OC(CO)[C@@H](O)C(O)C2O[C@H]2CC(C)(N)[C@H](O)C(C)O2)Oc2ccc(cc2Cl)C1O.Cl (stereo partly drawn) [Vancomycin]
- Referent MIC ranges [1]: 0.5 to 2 µg/mL
- Referent MIC ranges [2]: 1 to 4 µg/mL
- Referent MIC ranges [3]: 0.125 to 0.5 µg/mL
